These results are taken from publication PMC7914648 (Pharmaceuticals, 2021).

Entries after “also recorded” stand apart in the source; their conditions may differ.

One data set deals with SHSY-5Y cells. The data set can be described thus: MTS cell viability assay. It counts as cell-based. The note with it: 24 h treatment, 20, 10 and 3 μM, absorbance 490 nm, n = 3. The method, then: SHSY-5Y cells (kindly provided by I. Szabò) were grown in Dulbecco’s Modified Eagle Medium (DMEM, Aurogene) supplemented with 10% (v/v) fetal bovine serum (FBS), 100 U/mL penicillin G, 0.1 mg/mL streptomycin and 5% glutamine.
SHSY-5Y cells were seeded (10,000 cells/well) in standard 96-well plates in DMEM (200 µL). After 24 h, the growth medium was replaced with a medium containing PAPTP and PAPTPL (from a stock solution in DMSO) at the desired final concentrations (20, 10 and 3 μM). DMEM without additions (CONTROL in Figure 2) was used as negative control. The final concentration of DMSO was 0.1% or lower in all cases (including control). After incubation for 24 h, 20 µL of CellTiter 96 AQUEOUS One solution (Promega, Italy) were added to each well and the plate was incubated at 37 °C in a humidified, 5% CO2 atmosphere for 4 h. Absorbance was measured at 490 nm to detect formazan formation.
(Tetrazolium dyes change colour on reduction, which living cells bring about.)

Data set [1] is classed as in vivo, mouse. To be noted: PAPTP 5 µmoles/kg bw i.v. in mouse plasma, same procedure. The method, then: The brains of these mice were analyzed to evaluate the presence of the construct in the tissue (see Section 4.7). Each brain was homogenized and incubated with an equal volume of phosphate-buffered saline (PBS, pH 12.5) for 24 h; 10 volumes of ethyl acetate were then added. After vigorous mixing, the organic phase was collected, concentrated and analyzed via HPLC. This procedure allows hydrolysis of the carbamate bond, leading to the extraction of PAPTPL, which is considered proportional to the amount of peptide-PAPTP conjugate (or its fragments) present in the brain.
The protocol set up for PAPTPL recovery turned out to be inefficient for the quantification of TAT-PAPTP. An alternative protocol was thus developed. Tissue obtained from untreated mice was weighed and homogenized with PBS pH 7.4 (1 vol) with a potter. The pre-established amount of analyte was added into tissue homogenates and, after thorough vortexing, 1 vol of PBS pH 12.5 was added and the sample was incubated with intermittent vortexing at 60 °C for 24 h. This step is required to allow the hydrolysis of the carbamate bond connecting the peptide and PAPTPL. 10 vol of ethyl acetate were added and, after vortexing and sonication for 2 min, the sample was centrifuged at 12,000× g, 7 min, Room Temperature. The organic phase was collected and concentrated with Hetovac VR-1. ACN was added to the concentrated sample to allow the resuspension of PAPTPL and analyzed via HPLC. Quantification was as described for PAPTPL.
Brain and liver obtained from untreated mice were weighed and homogenized with PBS pH 7.4 (1 vol) with a potter. The pre-established amount of analyte was added into tissue homogenates and, after thorough vortexing, 5 vol of acetone were added and the sample was sonicated for 2 min. Subsequently, 5 vol of ACN containing 0.1% trifluoracetic acid (TFA) were added and the sample was sonicated for 5 min. The sample was then centrifuged at 12,000× g for 7 min at 4 °C and the supernatant was collected, concentrated with a Hetovac VR-1, and analyzed via HPLC-UV.
To quantify the amount of An2-PAPTP stuck in the tissue, the pellet remaining after the procedure described above was incubated with intermittent Vortexing at 60 °C for 3 h with PBS pH 12.5/ACN 1:1 and then centrifuged at 12,000× g for 7 min. HPLC-UV analysis of the supernatant, measuring PAPTPL hydrolyzed from the tissue, thus indirectly reflects the amount of An2-PAPTPL in the pellet (Scheme 3). Quantification was as described for PAPTPL.
(§1) A stock solution of the peptide-PAPTP conjugates was prepared in DMSO. TAT-PAPTP was administered at 8 and 5 μmol/kg bw and An2-PAPTP only at 5 μmol/kg bw. The calculated quantity of drugs was diluted from the stock solution in saline or mouse plasma to a final volume of 200 μL.

For a further data set, the system named is C57BL mice. The data set can be described thus: Observed toxicity after tail vein injection. The note with it: 5 µmoles/kg bw by tail vein injection in mouse plasma; no proper toxicological study. The data set is classed as in vivo. The method, then: TAT-PAPTP (5 µmoles/kg bw) was administered by tail vein injection to 2 C57BL mice. […] The observed toxicity was not due to the use of plasma, since mice were not made ill by the administration of PAPTP or An2-PAPTP in the same vehicle (see below, Section 2.7).
as §1

The nature of data set [2]: Visible precipitation in mouse plasma vehicle. It counts as physicochemical. To be noted: mouse plasma used as administration vehicle. From the text: We are not aware of other pharmacological studies utilizing plasma as a vehicle, but a precedent of sorts is provided by some rejuvenation or induced aging studies that examined the systemic effects of heterologous plasma administration.

Data set [3] relates to cultured glioma and glioblastoma cell lines. The note with it: cited from earlier work. An excerpt:
(§2) In turn, this difficulty may be due at least in part precisely to the TPP group, since the parent compound, PAP-1, is effective against various Central Nervous System (CNS) disorders. This difficulty is not surprising if one compares the characteristics of ...

A further data set has as its system orthotopic glioma. The note with it: orthotopic murine model; cited from earlier work.
From the text: as §2

Data set [4] can be described thus: heart after tail vein injection. The note with it: C57BL/6 mice, up to 60 min.
Data set [5] is described as follows: spleen after tail vein injection. The note with it: C57BL/6 mice, up to 60 min.
Data set [6] is described as follows: kidneys after tail vein injection. To be noted: C57BL/6 mice, up to 60 min.
Data set [7] is described as follows: liver extract after tail vein injection. The note with it: C57BL/6 mice, up to 60 min.
A short description of data set [8]: fresh mouse blood, withdrawn from the jugular vein and heparinized. The note with it: C57BL mice, 37 °C, up to 4 h.
The test system of the next data set is mice. To be noted: cited from earlier work. As to the method: While in the name of “reduction” a proper toxicological study was not carried out, the toxicity of TAT-PAPTP was evident. Peptide toxicity issues are not often discussed in the literature, but peptides, in particular arginine-rich ones, can be toxic in vivo as well as for cultured cells. […] Here the TAT-PAPTP conjugate was administered at 5 µmol/kg bw. However, conjugates can behave differently and have different toxicities depending on the attached “cargo” [54, 65, 66], as confirmed by the results of the present ...

For data set [9] the following is noted: mouse, in vivo, iv; cited from earlier work.
Data set [10] can be described thus: Planar bilayer experiments (membrane permeabilization). The note with it: 2 µM added to cis side, DPhPC bilayer, −40 mV, n = 3. As to the method:
The possible effects of An2-PAPTP and TAT-PAPTP on phospholipid membranes were investigated using the lipid bilayer technique. Bilayers with a capacity of 100–150 pF were prepared “painting” a diphytanoylphosphatidylcholine (DPhPC, Avanti Polar Lipids) solution in octane across a 150-µm hole in a Delrin cuvette (Warner Instruments, a division of Harvard Bioscience, Inc., Holliston, MA, USA). The two compartments separated by the bilayer are identified as cis and trans, and all voltages refer to the cis side, zero being assigned to the trans (grounded) one. One mL of recording solution (150 mM KCl, 10 mM HEPES/KOH, pH 7.4) was placed in both compartments. The contents of both chambers were stirred by magnetic bars when necessary. […] An2-PAPTP or TAT-PAPTP (DMSO stock solution) in a final concentration of 0.5 µM were added to the cis side. The final concentration of DMSO was 0.6%. 2 µM gramicidin from Bacillus brevis (Sigma) was added to the cis side as control.
Electrical connections were made using Ag/AgCl electrodes and agar salt bridges to minimize eliminate liquid junction potentials. Data were acquired at 10 kHz using a Bilayer Clamp BC-525C amplifier (Warner Instruments, a division of Harvard Bioscience, Inc., Holliston, MA, USA.) and low-pass filtered at 300 Hz for presentation. […]

As to `O=c1ccc2c(OCCCCOc3ccc(CCC[P+](c4ccccc4)(c4ccccc4)c4ccccc4)cc3)c3ccoc3cc2o1.[I-]` [PAPTP, (3-(4-(4-((7-oxo-7H-furo[3,2-g]benzopyran-4-yl)oxy)butoxy)phenyl)propyl) triphenyl phosphonium iodide], the “cytotoxic effect (cell viability, MTS reduction assay)” value in the data set on SHSY-5Y cells is “marked cytotoxicity”. For the same molecule, the “level in brain after i.v. PAPTP” value in data set [1] is given as “did not reach detectable levels”. Moreover, the “observed toxicity in mice” value in the data set on C57BL mice was “not made ill; also recorded: No sign of toxicity was observed”. Further, the “visible precipitates in plasma” value in data set [2] is on record as “did not form visible precipitates”. For the same molecule, in data set [3], the “killing of cultured glioma and glioblastoma cell lines” value was “efficiently killed”. Also, in the data set with orthotopic glioma, the “effect on tumor growth” value is given as “did not affect tumor growth”.

In the case of HN-ITFFYGGSRGKRNNFKTEEY-OH, the fragment found result is recorded as “PAPTPL, 15 min; also recorded: PAPTPL-IT, 30 min; also recorded: PAPTPL-ITF, 30 min” in [4]; “PAPTPL-ITF, 15 min; also recorded: PAPTPL-I, 15 min; also recorded: PAPTPL-IT, 15 min” in data set [5]; “PAPTPL-I, 15 min; also recorded: PAPTPL-IT, 15 min; also recorded: PAPTPL-ITF, 15 min” in [6]; “PAPTPL-I, 15 min; also recorded: PAPTPL-IT, 15 min; also recorded: PAPTPL-ITF, 15 min” in data set [7]. Also, the cleaved bond result in [8] was “hydrolysis of the carbamate bond connecting the peptide and PAPTPL, 10 min”.

Take “TAT47–57: arginine-rich TAT peptide segment”: the LD50 in the data set with mice is given as 17.5 µmol/kg bw.

For TWPKHFDKHTFYSILKLGKH [L57], in [9], the brain input result is “approximately 0.04 % of the injected dose”.

For the molecule gramicidin, the “appearance of ion currents in planar bilayers (control)” value in data set [10] is given as “expected development of “fast” ion currents”.
